This passage reports IC50 results from patent US10676468B2, “N-(3-heteroarylaryl)-4-arylarylcarboxamides and analogs as hedgehog pathway inhibitors and use thereof” (IMPACT Therapeutics, Inc., priority 2012, dated 2020).

What all share (format): cell-based, mouse
Experiment [1] deals with Hedgehog Signaling Pathway. Kind of experiment: SAG-induced differentiation of C3H10T1/2 cells into osteoblastic cells, intracellular alkaline phosphatase activity. The conditions noted are these: Mus musculus, C3H 10T1/2, 120 h, 1 μM SAG, 5 days, alkaline phosphatase activity (OD405), read-out: IC50 values of compounds that inhibit Hh pathway. Put shortly: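 Mouse C3H10T1/2 cells were induced with SAG and exposed to compound (10 μM to 1 nM) for 5 days at 37 °C. Cells were lysed in 0.2% Triton, and alkaline phosphatase activity was read as OD405 over 30 min at 37 °C in pH 9.8 substrate buffer. IC50 came from a non-linear fit of background-subtracted OD405 against log concentration.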

Experiment [2] relates to Hedgehog Signaling Pathway. Kind of experiment: SHH-induced differentiation of C3H10T1/2 cells into osteoblastic cells, intracellular alkaline phosphatase activity. The conditions noted are these: Mus musculus, C3H 10T1/2, 120 h, 10 nM SHH-N, 5 days, alkaline phosphatase activity (OD405), read-out: IC50 values of compounds that inhibit Hh pathway. The method in brief: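 Hedgehog pathway inhibition was taken as loss of SHH-driven osteoblastic differentiation. Test compound (10 nM–10 μM) plus SHH-N (10 nM) was applied to C3H10T1/2 cells for 5 days, then lysate phosphatase turnover was measured as the 30-min OD405 change at 37 °C. IC50 was fitted from activity versus log dose.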

Experiment [3] concerns Hedgehog Signaling Pathway. The experiment in a line: Gli-Luc reporter gene cell assay in C3H10T1/2/Gli-Luc cells stimulated with Shh. The conditions noted are these: Mus musculus, C3H 10T1/2, 24 h, 30 nM Shh, luciferase activity (RLU), read-out: IC50 values of compounds that inhibit Hh pathway. The method in brief:
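IC50 from nonlinear fit of luciferase RLU versus log compound concentration. Stably transfected C3H10T1/2/Gli-Luc cells received a 7-point compound series alongside Shh (30 nM in the added medium) for 24 h at 37 °C in DMEM/10% FBS, then were lysed for luciferase readout.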
(A reporter such as luciferase makes a cellular process visible.)

By IC50 is commonly meant the concentration needed to halve the response being measured. As for `Cc1cc(N2C[C@@H](C)N(C(C)C)[C@@H](C)C2)ccc1C(=O)Nc1ccc(Cl)c(-c2nc3ccccc3[nH]2)c1` [Example 101, N-(3-(1H-benzo[d]imidazol-2-yl)-4-chlorophenyl)-2-methyl-4-((3S,5R)-4-isopropyl-3,5-dimethylpiperazin-1-yl)benzamide], the results for the IC50 in experiment [1], in experiment [2] and in experiment [3] were 46 nM, 0.64 nM and 0.67 nM, respectively.
Taken in the same sequence, the figures for `CN1CCN(c2ccc(C(=O)Nc3ccc(Cl)c(-c4nc5ccccc5[nH]4)c3)cn2)CC1` [Example 103, N-(3-(1H-benzo[d]imidazol-2-yl)-4-chlorophenyl)-6-(4-methylpiperazin-1-yl)nicotinamide] were 449 nM, 40 nM and 9.4 nM.
Taken in the same sequence, the figures for `C[C@@H]1CN(c2ccc(C(=O)Nc3ccc(Cl)c(-c4nc5ccccc5[nH]4)c3)cn2)C[C@H](C)N1C` [Example 104, N-(3-(1H-benzo[d]imidazol-2-yl)-4-chlorophenyl)-6-((3S,5R)-3,4,5-trimethylpiperazin-1-yl)nicotinamide] were 58 nM, 0.61 nM and 0.94 nM.
Taken in the same sequence, the figures for `CCN1[C@H](C)CN(c2ccc(C(=O)Nc3ccc(Cl)c(-c4nc5ccccc5[nH]4)c3)cn2)C[C@@H]1C` [Example 105, N-(3-(1H-benzo[d]imidazol-2-yl)-4-chlorophenyl)-6-((3S,5R)-4-ethyl-3,5-dimethylpiperazin-1-yl)nicotinamide] were 58 nM, 2.2 nM and 1.1 nM.
In the case of `Cc1cc(N2C[C@@H](C)N(C)[C@@H](C)C2)ncc1C(=O)Nc1ccc(Cl)c(-c2nc3ccccc3[nH]2)c1` [Example 107, N-(3-(1H-benzo[d]imidazol-2-yl)-4-chlorophenyl)-4-methyl-6-((3S,5R)-3,4,5-trimethylpiperazin-1-yl)nicotinamide], the values for the IC50 in experiment [1], in experiment [2] and in experiment [3] were 47 nM, 2.3 nM and 0.75 nM, respectively.
The like results for `Cc1cc(N2C[C@@H](C)N[C@@H](C)C2)ccc1C(=O)Nc1ccc(Cl)c(-c2nc3ccccc3[nH]2)c1` [Example 109, N-(3-(1H-benzo[d]imidazol-2-yl)-4-chlorophenyl)-2-methyl-4-((3S,5R)-3,5-dimethylpiperazin-1-yl)benzamide] were, in that order, 96 nM, 6.4 nM and 3.8 nM.
On to `C[C@@H]1CN(c2ccc(C(=O)Nc3ccc(Cl)c(-c4nc5ccccc5n4C)c3)c(Cl)c2)C[C@H](C)N1C` [Example 110, N-(3-(1-methyl-1H-benzo[d]imidazol-2-yl)-4-chlorophenyl)-2-chloro-4-((3S,5R)-3,4,5-trimethylpiperazin-1-yl)benzamide], for which the IC50 in experiment [1] was 28 nM; in experiment [2], 0.66 nM; in experiment [3], 0.57 nM.
The like results for `Cc1ccc2nc(-c3cc(NC(=O)c4ccc(N5C[C@@H](C)N(C)[C@@H](C)C5)cc4Cl)ccc3Cl)[nH]c2c1` [Example 111, N-(3-(6-methyl-1H-benzo[d]imidazol-2-yl)-4-chlorophenyl)-2-chloro-4-((3S,5R)-3,4,5-trimethylpiperazin-1-yl)benzamide] were, in that order, 68 nM, 0.94 nM and 2.2 nM.
Taken in the same sequence, the figures for `Cc1ccc2nc(-c3cc(NC(=O)c4ccc(N5C[C@@H](C)N(C)[C@@H](C)C5)cc4C)ccc3Cl)[nH]c2c1` [Example 112, N-(3-(6-methyl-1H-benzo[d]imidazol-2-yl)-4-chlorophenyl)-2-methyl-4-((3S,5R)-3,4,5-trimethylpiperazin-1-yl)benzamide] were 83 nM, 8.6 nM and 5.5 nM.
The like results for `Cc1ccc(NC(=O)c2ccc(N3C[C@@H](C)N(C)[C@@H](C)C3)cc2Cl)cc1-c1nc2ccc(Cl)cc2[nH]1` [Example 113, N-(3-(6-chloro-1H-benzo[d]imidazol-2-yl)-4-methylphenyl)-2-chloro-4-((3S,5R)-3,4,5-trimethylpiperazin-1-yl)benzamide] were, in that order, 1040 nM, above 10000 nM and 27 nM.
Regarding `CCN1[C@H](C)CN(c2ccc(C(=O)Nc3ccc(Cl)c(-c4nc5ccc(F)cc5[nH]4)c3)c(Cl)c2)C[C@@H]1C` [Example 114, N-(3-(6-fluoro-1H-benzo[d]imidazol-2-yl)-4-chlorophenyl)-2-chloro-4-((3S,5R)-4-ethyl-3,5-dimethylpiperazin-1-yl)benzamide], the IC50 in experiment [1] is 77 nM; in experiment [2], 9 nM; in experiment [3], 0.85 nM.
The like results for `Cc1ccc(NC(=O)c2ccc(N3C[C@@H](C)N(C)[C@@H](C)C3)cc2Cl)cc1-c1nc2ccc(F)cc2[nH]1` [Example 115, N-(3-(6-fluoro-1H-benzo[d]imidazol-2-yl)-4-methylphenyl)-2-chloro-4-((3S,5R)-3,4,5-trimethylpiperazin-1-yl)benzamide] were, in that order, 145 nM, 31 nM and 3.4 nM.
The like results for `Cc1nc(N2C[C@@H](C)N(C)[C@@H](C)C2)ccc1C(=O)Nc1ccc(Cl)c(-c2nc3ccccc3[nH]2)c1` [Example 116, N-(3-(1H-benzo[d]imidazol-2-yl)-4-chlorophenyl)-2-methyl-6-((3S,5R)-3,4,5-trimethylpiperazin-1-yl)nicotinamide] were, in that order, 68 nM, 2.1 nM and 1.4 nM.
Taken in the same sequence, the figures for `C[C@@H]1CN(c2ccc(C(=O)Nc3ccc(Cl)c(-c4nc5ccccc5[nH]4)c3)c(Cl)n2)C[C@H](C)N1C` [Example 117, N-(3-(1H-benzo[d]imidazol-2-yl)-4-chlorophenyl)-2-chloro-6-((3S,5R)-3,4,5-trimethylpiperazin-1-yl)nicotinamide] were 27 nM, 4.6 nM and 1.2 nM.
`C[C@@H]1CN(c2ccc(C(=O)Nc3ccc(Cl)c(-c4nc5ccccc5[nH]4)c3)cc2)C[C@H](C)N1C` [Example 118, N-(3-(1H-benzo[d]imidazol-2-yl)-4-chlorophenyl)-4-((3S,5R)-3,4,5-trimethylpiperazin-1-yl)benzamide]: the IC50 was 260 nM in experiment [1], 13 nM in experiment [2] and 5.1 nM in experiment [3].
Taken in the same sequence, the figures for `C[C@@H]1CN(c2ccc(C(=O)Nc3ccc(Cl)c(-c4nc5ccccc5[nH]4)c3)c(C(F)(F)F)c2)C[C@H](C)N1C` [Example 119, N-(3-(1H-benzo[d]imidazol-2-yl)-4-chlorophenyl)-2-(trifluoromethyl)-4-((3S,5R)-3,4,5-trimethylpiperazin-1-yl)benzamide] were 39 nM, 0.76 nM and 0.45 nM.
The like results for `C[C@@H]1CN(c2ccc(C(=O)Nc3ccc(Cl)c(-c4nc5ccccc5[nH]4)c3)cc2Cl)C[C@H](C)N1C` [Example 120, N-(3-(1H-benzo[d]imidazol-2-yl)-4-chlorophenyl)-3-chloro-4-((3S,5R)-3,4,5-trimethylpiperazin-1-yl)benzamide] were, in that order, 57 nM, 7.4 nM and 1.7 nM.
